{
  "source": "patent US10670576B2",
  "about": "“Device and method for measuring impedance in organotypic tissues” (Universität Leipzig, priority 2008, dated 2020)",
  "system": "hippocampal slice cultures",
  "test": "Impedance measurement (TIECIR) of organotypic hippocampal slice cultures after induction of tau-hyperphosphorylation",
  "format": "cell-based",
  "conditions": "1 μM, hippocampal slices of 8-9 day old rats, 7 days in culture, 100 Hz to 1 MHz, 10 mV, stable for 9 hours before application, remained small within the next seven hours",
  "procedure": "The impedance changes caused by tau-hyperphosphorylation (FIG. 11) of hippocampal slices that were prepared from 8-9 day old rats were measured using the device according to the present invention. Six to eight hippocampal slices of 400 μm thickness were places on a aluminiumoxyd membrane (0.02 μm pore size) of a 6-well recording chamber and cultured for 7 days in 50% minimum essential media, 25% Hank's media, and 25% horse serum supplemented with L-glutamine and antibiotics. Impedance recording was performed by using a Agilent 4294A impedance analyser (Agilent Technologies Deutschland GmbH, Germany) in combination with a multiplexer (NI-SCXI-1153, National Instruments, USA).\n24 hours before impedance measurement was carried out, medium replaced by fresh culture medium. The impedance was recorded in a frequency range of 100 Hz to 1 MHz by applying a voltage of 10 mV across a large top electrode and 60 substrate integrated bottom electrodes of 30 μm in diameter.\nFor measuring hippocampal slice cultures, the TIECIR method was used. Organotypic slice cultures were transiently covered with medium during impedance measurement, which usually takes less than 30 seconds for a single bottom electrode. […]",
  "data": [
    {"smiles": "C=C1[C@@H](O)[C@@H]2O[C@]3(CC[C@H](/C=C/[C@@H](C)[C@@H]4CC(C)=C[C@@]5(O[C@H](C[C@@](C)(O)C(=O)O)CC[C@H]5O)O4)O3)CC[C@H]2O[C@@H]1[C@@H](O)C[C@H](C)[C@H]1O[C@@]2(CCCCO2)CC[C@H]1C", "note": "[ocadaic acid]", "values": [
      {"measurement": "normalized impedance (normalized against non-covered membrane)", "value": 10, "unit": "%"}
    ]}
  ]
}
